Earlier results on two compounds are cited in US20200357489A1, “DEEP LEARNING-BASED QUICK AND PRECISE HIGH-THROUGHPUT DRUG SCREENING SYSTEM” (Shanghai Tongji Hospital, priority 2018, published 2020).

SMILES strings stand for the structures. Where two headings read alike, the source gives them in different places.

As for `COc1cc([C@@H]2c3cc4c(cc3[C@@H](O[C@@H]3O[C@@H]5CO[C@@H](C)O[C@H]5[C@H](O)[C@H]3O)[C@H]3COC(=O)[C@H]23)OCO4)cc(OC)c1O` [VP16, etoposide], the efficacy classification entry was “Low effcacy” in the data set on A549 cells (50 μg/ml VP16), “Moderate” with A549 cells (100 μg/ml VP16) and “High efficacy” in the data set on A549 cells (200 μg/ml VP16).

On to `COc1cc(/C=C/C(=O)CC(=O)/C=C/c2ccc(O)c(OC)c2)ccc1O` [Cur, curcumin], for which the efficacy classification entry in the data set on HepG2 cells (5 μg/ml Cur) was “Low effcacy”; in the data set with HepG2 cells (10 μg/ml Cur) it was “Moderate”; in the data set with HepG2 cells (20 μg/ml Cur) it was “High efficacy”.
